Values after ≈ are worked out from the molar mass of the structure shown.
What was measured:
Type in all cases: cell-based
[1] = system: Strep. pyogenes C-203; experiment: in vitro antibacterial activity, microtitration dilution (MIC), Strep. pyogenes C-203; conditions: Streptococcus pyogenes, C203, read-out: minimum inhibiting concentration (MIC)
Text: (§1) The in vitro antibacterial activity, is obtained by the microtitration dilution method as described in Heifetz, et al., Antimicr. Agents & Chemother., 6, 124 (1974), which is incorporated herein by reference.
(§2) By use of the above methods, the following minimum inhibiting concentration values (MICs in μg/mL), PD50 's in mg/kg, no effect phototoxicity dose in mg/kg and the cytotoxicity IC50 in μg/mL were obtained for representative enantiomers of the invention and compounds of the prior art as shown in the table.

[2] = system: Esch. coli Vogel; experiment: in vitro antibacterial activity, microtitration dilution (MIC), Esch. coli Vogel; conditions: Escherichia coli, read-out: minimum inhibiting concentration (MIC)
Text: as §1, §2

[3] = system: Ent. cloacae MA2646; experiment: in vitro antibacterial activity, microtitration dilution (MIC), Ent. cloacae MA2646; conditions: Enterobacter cloacae, read-out: minimum inhibiting concentration (MIC)
Text: as §1, §2

[4] = system: Strep. faecalis MGH-2; experiment: in vitro antibacterial activity, microtitration dilution (MIC), Strep. faecalis MGH-2; conditions: Enterococcus faecalis, MGH2, read-out: minimum inhibiting concentration (MIC)
Text: as §1, §2

[5] = system: Staph. aureus UC-76; experiment: in vitro antibacterial activity, microtitration dilution (MIC), Staph. aureus UC-76; conditions: Staphylococcus aureus, UC76, read-out: minimum inhibiting concentration (MIC)
Text: as §1, §2

[6] = system: Staph. aureus H 228; experiment: in vitro antibacterial activity, microtitration dilution (MIC), Staph. aureus H 228; conditions: Staphylococcus aureus, H228, read-out: minimum inhibiting concentration (MIC)
Text: as §1, §2

[7] = system: Klebs. pneumoniae MGH-2; experiment: in vitro antibacterial activity, microtitration dilution (MIC), Klebs. pneumoniae MGH-2; conditions: Klebsiella pneumoniae, MGH2, read-out: minimum inhibiting concentration (MIC)
Text: as §1, §2

[8] = system: Pseud. aeruginosa UI-18; experiment: in vitro antibacterial activity, microtitration dilution (MIC), Pseud. aeruginosa UI-18; conditions: Pseudomonas aeruginosa, UI18, read-out: minimum inhibiting concentration (MIC)
Text: as §1, §2

[9] = system: Strep. pheumoniae SV-1; experiment: in vitro antibacterial activity, microtitration dilution (MIC), Strep. pneumoniae SV-1; conditions: Streptococcus pneumoniae, SV1, read-out: minimum inhibiting concentration (MIC)
Text: as §1, §2

[10] = system: Prot. rettgeri M 1771; experiment: in vitro antibacterial activity, microtitration dilution (MIC), Prot. rettgeri M 1771; conditions: Providencia rettgeri, M1771, read-out: minimum inhibiting concentration (MIC)
Text: as §1, §2

Compound	MIC [1] [µg/mL]	MIC [2] [µg/mL]	MIC [3] [µg/mL]	MIC [4] [µg/mL]	MIC [5] [µg/mL]	MIC [6] [µg/mL]	MIC [7] [µg/mL]	MIC [8] [µg/mL]	MIC [9] [µg/mL]	MIC [10] [µg/mL]
CN[C@H](C)[C@H]1CCN(c2nc3c(cc2F)c(=O)c(C(=O)O)cn3C2CC2)C1 [Example 23, 3S,1R-1-cyclopropyl-6-fluoro-7-[3-(1-N-methylaminoethyl)-1-pyrrolidinyl]-1,4-dihydro-4-oxo-1,8-naphthyridine-3-carboxylic acid]	0.1 (≈ 0.267 µM)	0.1 (≈ 0.267 µM)	0.1 (≈ 0.267 µM)	0.2 (≈ 0.534 µM)	0.05 (≈ 0.134 µM)	0.2 (≈ 0.534 µM)	0.2 (≈ 0.534 µM)	1.6 (≈ 4.27 µM)	0.1 (≈ 0.267 µM)	0.8 (≈ 2.14 µM)
CCN[C@@H](C)[C@@H]1CCN(c2cc3c(c(C)c2F)c(=O)c(C(=O)O)cn3C2CC2)C1 [Example 52, 3R,1S-1-cyclopropyl-7-[3-(1-N-ethylaminoethyl)-1-pyrrolidinyl]-6-fluoro-1,4-dihydro-5-methyl-4-oxo-3-quinolinecarboxylic acid]	0.05 (≈ 0.125 µM)	0.4 (≈ 0.996 µM)	0.4 (≈ 0.996 µM)	0.05 (≈ 0.125 µM)	0.013 (≈ 0.0324 µM)	0.05 (≈ 0.125 µM)	0.4 (≈ 0.996 µM)	3.1 (≈ 7.72 µM)	0.05 (≈ 0.125 µM)	1.6 (≈ 3.99 µM)
CCN[C@@H](C)[C@@H]1CCN(c2cc3c(c(N)c2F)c(=O)c(C(=O)O)cn3C2CC2)C1 [Example 55, 3R,1S-5-amino-7-[3-(1-N-ethylaminoethyl)-1-pyrrolidinyl]-1-cyclopropyl-6-fluoro-1,4-dihydro-4-oxo-3-quinolinecarboxylic acid]	0.013 (≈ 0.0323 µM)	0.1 (≈ 0.248 µM)	0.1 (≈ 0.248 µM)	0.05 (≈ 0.124 µM)	0.025 (≈ 0.0621 µM)	0.05 (≈ 0.124 µM)	0.2 (≈ 0.497 µM)	1.6 (≈ 3.98 µM)	0.013 (≈ 0.0323 µM)	0.8 (≈ 1.99 µM)
COc1c(N2CC[C@@H]([C@H](C)N)C2)c(F)cc2c(=O)c(C(=O)O)cn(C3CC3)c12 [Example 44, 3R,1S-7-[3-(1-aminoethyl)-1-pyrrolidinyl]-1-cyclopropyl-6-fluoro-1,4-dihydro-8-methoxy-4-oxo-3-quinolinecarboxylic acid]	≤ 0.003	0.025 (≈ 0.0642 µM)	0.05 (≈ 0.128 µM)	0.006 (≈ 0.0154 µM)	≤ 0.003	0.006 (≈ 0.0154 µM)	0.05 (≈ 0.128 µM)	0.4 (≈ 1.03 µM)	≤ 0.003	0.05 (≈ 0.128 µM)
CN[C@@H](C)[C@H]1CCN(c2nc3c(cc2F)c(=O)c(C(=O)O)cn3C2CC2)C1 [Example 24, 3S,1S-1-cyclopropyl-6-fluoro-7-[3-(1-N-methylaminoethyl)-1-pyrrolidinyl]-1,4-dihydro-4-oxo-1,8-naphthyridine-3-carboxylic acid]	0.4 (≈ 1.07 µM)	0.2 (≈ 0.534 µM)	0.4 (≈ 1.07 µM)	0.8 (≈ 2.14 µM)	0.2 (≈ 0.534 µM)	0.8 (≈ 2.14 µM)	0.4 (≈ 1.07 µM)	3.1 (≈ 8.28 µM)	0.4 (≈ 1.07 µM)	0.8 (≈ 2.14 µM)
C[C@H]([C@H]1CCN(c2nc3c(cc2F)c(=O)c(C(=O)O)cn3C2CC2)C1)N(C)C [Example 69, 3S,1R-1-cyclopropyl-7-[3-[1-(dimethylamino)ethyl]-1-pyrrolidinyl]-6-fluoro-1,4-dihydro-4-oxo-1,8-naphthyridine-3-carboxylic acid]	0.025 (≈ 0.0644 µM)	0.1 (≈ 0.257 µM)	0.1 (≈ 0.257 µM)	0.025 (≈ 0.0644 µM)	0.006 (≈ 0.0154 µM)	0.05 (≈ 0.129 µM)	0.2 (≈ 0.515 µM)	1.6 (≈ 4.12 µM)	0.013 (≈ 0.0335 µM)	0.4 (≈ 1.03 µM)
Cc1c(F)c(N2CC[C@@H]([C@@H](C)N)C2)cc2c1c(=O)c(C(=O)O)cn2-c1ccc(F)cc1F [Example 46, 3R,1R-7-[3-(1-aminoethyl)-1-pyrrolidinyl]-1-(2,4-difluorophenyl)-6-fluoro-1,4-dihydro-5-methyl-4-oxo-3-quinolinecarboxylic acid]	0.013 (≈ 0.0292 µM)	0.2 (≈ 0.449 µM)	0.2 (≈ 0.449 µM)	0.1 (≈ 0.224 µM)	0.013 (≈ 0.0292 µM)	0.025 (≈ 0.0561 µM)	0.4 (≈ 0.898 µM)	1.6 (≈ 3.59 µM)	0.013 (≈ 0.0292 µM)	0.4 (≈ 0.898 µM)
